Reference: patent publication US7629320B2, “Nucleoside derivatives for treating hepatitis C virus infection” (SmithKline Beecham Corporation, priority 2002, dated 2009)

What was measured:
[1] = tested on: HCV; assay: activity of Example 26 (test not stated; patent concerns anti-hepatitis C activity); details: test not specified
[2] = patients treated at currently recommended doses; cited from earlier work

SMILES	activity (stated in words) [1]	patients with significant hemolysis [2]
O=P(O)(O)OP(=O)(O)OP(=O)(O)OC[C@H]1O[C@@H](n2cnc3c(NO)ncnc32)[C@H](O)[C@@H]1O [Example 26, 6-Hydroxylamino-9-β-D-ribofuranosylpurine 5′-Triphosphate]	inactive	–
NC(=O)c1ncn([C@@H]2O[C@H](CO)[C@@H](O)[C@H]2O)n1 [Ribavirin, 1-β-D-ribofuranosyl-1H-1,2,-4-triazole-3-carboxamide]	–	10-20%
